Measured values from US20220265629A1, “TREATMENT OF SYSTOLIC DYSFUNCTION AND HEART FAILURE WITH REDUCED EJECTION FRACTION WITH THE COMPOUND (R)-4-(1-((3-(DIFLUOROMETHYL)-1-METHYL-1H-PYRAZOL-4-YL)SULFONYL)-1-FLUOROETHYL)-N-(ISOXAZOL-3-YL)PIPERIDINE-1-CARBOXAMIDE” (MyoKardia, Inc., priority 2019, published 2022).
Like-named read-outs stand apart in the source and are kept apart here.

Assay: Single ascending oral dose study in healthy volunteers: plasma pharmacokinetics
Type: in vivo, human
Conditions: for Plasma concentration, Mean / concentration at 6 h: 6 Hours Postdose; for concentration at 6 h / concentration at 12 h / concentration at 24 h / concentration at 48 h / concentration at 72 h / AUC(0-t) / AUC(0-inf) / Cmax / half-life / MRT / Tmax / Vd/F: human, plasma, oral; for concentration at 12 h: 12 Hours Postdose; for concentration at 24 h: 24 Hours Postdose; for concentration at 48 h: 48 Hours Postdose; for concentration at 72 h: 72 Hours Postdose
Description: This example describes the first-in-human study of Compound I. Based on its mechanism of action, Compound I may offer a targeted therapy for patients with DCM caused by genetic or nongenetic mechanisms. The study was a randomized, double-blind, placebo-controlled, sequential group, single-ascending (oral) close study in healthy subjects aged 18-55 years. Eight dosing cohorts, each comprising eight healthy subjects, were enrolled. Within each cohort, subjects were randomized 6:2 to Compound I:placebo.
Subjects were resident at the clinical site for up to 5 days and 4 nights, from Day −1 (the day before dosing) to Day 4, and received a single dose of Compound I or placebo on Day 1. ECG telemetry was initiated 1 hour preclose and continued through 48 hours postclose (Day 3). Any subject with a preclose resting HR≥80 beats per minute was considered ineligible and not treated. […] Subjects returned for a safety follow-up visit 7 days (±1 day) after dosing.
All randomized study subjects received either Compound I or matching placebo as a single oral dose after a fasting period of at least 6 hours. Compound I drug substance is a crystalline, free-base, synthetic molecule with a molecular weight of 435.4 g/mol.
Compound I was provided as a powder for oral suspension. Placebo was provided as calcium carbonate powder. Both treatments were closed orally as a suspension. The suspension was made using Ora-Plus® suspending vehicle (Perrigo) and a cherry syrup flavoring vehicle (Humco), mixed 50% to 50%. The suspension was followed by approximately 100 mL water. The suspension was made up within 14 days from the time in which it was closed which was consistent with the stability data on the suspension. The suspension was made up so the volume administered to the subjects who received Compound I was the same at 20 mL.
Each subject received a close according to the cohort in which they were enrolled. Cohorts were enrolled sequentially, with each cohort receiving an escalated dose of Compound I. The closes administered were 3 mg, 10 mg, 25 mg, 50 mg, 100 mg, 175 mg, 350 mg, and 525 mg, respectively.
The concentrations of Compound I in human plasma and urine were quantitated by high performance liquid chromatography with tandem mass spectrometric detection (LC MS/MS) (Biological sample analysis study report Alturas AD17-726). Plasma samples were extracted by protein precipitation with acetonitrile containing internal standard MYK-5654. The calibration curves were linear over concentration range of 0.500 to 1000 ng/mL with a lower limit of quantification (LLOQ) of 0.500 ng/mL.
The PK Population included all subjects who received Compound I. Blood samples were collected for PK assessments. The actual timing of the samples may have been modified and/or up to an additional 2 samples may have been requested by the SRC after review of the data from previous cohorts. It was important that PK sampling occurred as closely as possible to the scheduled time (±10%). Both blood and urine samples were used for PK assessments.
In addition, for subjects who received placebo, a single plasma sample near the predicted tmax of Compound I was evaluated to confirm the lack of circulating Compound I. Plasma concentration data for Compound I was summarized using descriptive statistics, including mean, standard deviation (SD), median, minimum, and maximum values, and percent coefficient of variation. Other PK parameters included (but were not limited to) Cmax, tmax, AUC, t1/2, and MRT. Additionally, the apparent terminal-phase terminal half-life was calculated. The close proportionality of AUC and Cmax was explored.

[1] = 3 mg, 3 mg, read-out: Plasma concentration, Geometric Mean
[2] = 3 mg, 3 mg, read-out: Plasma concentration, Mean
[3] = 3 mg, 3 mg, read-out: Plasma concentration, Median
[4] = 10 mg, 10 mg, read-out: Plasma concentration, Geometric Mean
[5] = 10 mg, 10 mg, read-out: Plasma concentration, Mean
[6] = 10 mg, 10 mg, read-out: Plasma concentration, Median

SMILES: Cn1cc(S(=O)(=O)[C@@](C)(F)C2CCN(C(=O)Nc3ccon3)CC2)c(C(F)F)n1 [Compound I, (R)-4-(1-((3-(difluoromethyl)-1-methyl-1H-pyrazol-4-yl)sulfonyl)-1-fluoroethyl)-N-(isoxazol-3-yl)piperidine-1-carboxamide]
- CL/F, Geometric Mean (3 mg): 4.15 L/h
- CL/F, Mean (3 mg): 4.26 L/h
- CL/F, Median (3 mg): 4.22 L/h
- Extrapolation, Geometric Mean (3 mg): 2.71%
- Extrapolation, Mean (3 mg): 2.78%
- Extrapolation, Median (3 mg): 2.82%
- CL/F, Geometric Mean (10 mg): 2.99 L/h
- CL/F, Mean (10 mg): 3.06 L/h
- CL/F, Median (10 mg): 2.88 L/h
- Extrapolation, Geometric Mean (10 mg): 1.59%
- Extrapolation, Mean (10 mg): 1.90%
- Extrapolation, Median (10 mg): 2.24%
- CL/F, Geometric Mean (25 mg): 3.55 L/h
- CL/F, Mean (25 mg): 3.69 L/h
- CL/F, Median (25 mg): 3.32 L/h
- Extrapolation, Geometric Mean (25 mg): 1.45%
- Extrapolation, Mean (25 mg): 1.72%
- Extrapolation, Median (25 mg): 1.92%
- CL/F, Geometric Mean (50 mg): 4.47 L/h
- CL/F, Mean (50 mg): 4.53 L/h
- CL/F, Median (50 mg): 4.46 L/h
- Extrapolation, Geometric Mean (50 mg): 0.46%
- Extrapolation, Mean (50 mg): 0.91%
- Extrapolation, Median (50 mg): 0.46%
- CL/F, Geometric Mean (100 mg): 4.69 L/h
- CL/F, Mean (100 mg): 4.76 L/h
- CL/F, Median (100 mg): 5.33 L/h
- Extrapolation, Geometric Mean (100 mg): 0.36%
- Extrapolation, Mean (100 mg): 5.48%
- Extrapolation, Median (100 mg): 0.14%
- CL/F, Geometric Mean (175 mg): 4.57 L/h
- CL/F, Mean (175 mg): 4.66 L/h
- CL/F, Median (175 mg): 4.45 L/h
- Extrapolation, Geometric Mean (175 mg): 0.14%
- Extrapolation, Mean (175 mg): 0.17%
- Extrapolation, Median (175 mg): 0.16%
- CL/F, Geometric Mean (350 mg): 4.75 L/h
- CL/F, Mean (350 mg): 4.95 L/h
- CL/F, Median (350 mg): 4.75 L/h
- Extrapolation, Geometric Mean (350 mg): 0.37%
- Extrapolation, Mean (350 mg): 0.60%
- Extrapolation, Median (350 mg): 0.43%
- AUC0-∞, Mean (350 mg + 525 mg): 74.35888 µg·h/mL
- CL/F, Geometric Mean (350 mg + 525 mg): 6.04 L/h
- CL/F, Mean (350 mg + 525 mg): 6.51 L/h
- CL/F, Median (350 mg + 525 mg): 6.10 L/h
- Extrapolation, Geometric Mean (350 mg + 525 mg): 0.29%
- Extrapolation, Mean (350 mg + 525 mg): 0.59%
- Extrapolation, Median (350 mg + 525 mg): 0.32%
- Tmax, Mean (350 mg + 525 mg): 4.96 h
- CL/F, Geometric Mean (525 mg): 7.66 L/h
- CL/F, Mean (525 mg): 8.07 L/h
- CL/F, Median (525 mg): 7.64 L/h
- Extrapolation, Geometric Mean (525 mg): 0.22%
- Extrapolation, Mean (525 mg): 0.59%
- Extrapolation, Median (525 mg): 0.23%
- Plasma concentration, Mean (350 mg): 2.66 µg/mL
- Plasma concentration, Mean (350 mg + 525 mg): 2.4375 µg/mL
- Plasma concentration, Mean (525 mg): 2.215 µg/mL
- dose proportionality, power model slope (all dose groups, 95% CI 0.8358-0.9417): 0.8888
- concentration at 6 h [1]: 0.0352 µg/mL
- concentration at 6 h [2]: 0.0358 µg/mL
- concentration at 6 h [3]: 0.0335 µg/mL
- concentration at 12 h [1]: 0.0215 µg/mL
- concentration at 12 h [2]: 0.0219 µg/mL
- concentration at 12 h [3]: 0.0217 µg/mL
- concentration at 24 h [1]: 0.011 µg/mL
- concentration at 24 h [2]: 0.0113 µg/mL
- concentration at 24 h [3]: 0.0108 µg/mL
- concentration at 48 h [1]: 0.00229 µg/mL
- concentration at 48 h [2]: 0.0027 µg/mL
- concentration at 48 h [3]: 0.00234 µg/mL
- concentration at 72 h [2]: 0.000586 µg/mL
- concentration at 72 h [3]: 0.000449 µg/mL
- AUC(0-t) (3 mg, read-out: AUC0-24, Geometric Mean): 0.514 µg·h/mL
- AUC(0-t) (3 mg, read-out: AUC0-24, Mean): 0.521 µg·h/mL
- AUC(0-t) (3 mg, read-out: AUC0-24, Median): 0.504 µg·h/mL
- AUC(0-t) (3 mg, read-out: AUC0-48, Geometric Mean): 0.676 µg·h/mL
- AUC(0-t) (3 mg, read-out: AUC0-48, Mean): 0.689 µg·h/mL
- AUC(0-t) (3 mg, read-out: AUC0-48, Median): 0.678 µg·h/mL
- AUC(0-t) (3 mg, read-out: AUC0-last, Geometric Mean): 0.702 µg·h/mL
- AUC(0-t) (3 mg, read-out: AUC0-last, Mean): 0.721 µg·h/mL
- AUC(0-t) (3 mg, read-out: AUC0-last, Median): 0.713 µg·h/mL
- AUC(0-inf) (3 mg, read-out: AUC0-∞, Geometric Mean): 0.722 µg·h/mL
- AUC(0-inf) (3 mg, read-out: AUC0-∞, Mean): 0.741 µg·h/mL
- AUC(0-inf) (3 mg, read-out: AUC0-∞, Median): 0.73 µg·h/mL
- Cmax (3 mg, read-out: Cmax, Geometric Mean): 0.0376 µg/mL
- Cmax (3 mg, read-out: Cmax, Mean): 0.0382 µg/mL
- Cmax (3 mg, read-out: Cmax, Median): 0.0365 µg/mL
- half-life (3 mg, read-out: Half-Life Lambda Z, Geometric Mean (converted)): 11.1 h
- half-life (3 mg, read-out: Half-Life Lambda Z, Mean (converted)): 11.3 h
- half-life (3 mg, read-out: Half-Life Lambda Z, Median (converted)): 11.2 h
- MRT (3 mg, read-out: Mean Residence Time, Geometric Mean): 17.3 h
- MRT (3 mg, read-out: Mean Residence Time, Mean): 17.5 h
- MRT (3 mg, read-out: Mean Residence Time, Median): 16.8 h
- Tmax (3 mg, read-out: Tmax, Geometric Mean): 4.33 h
- Tmax (3 mg, read-out: Tmax, Mean): 4.46 h
- Tmax (3 mg, read-out: Tmax, Median): 4 h
- Vd/F (3 mg, read-out: Vz/F, Geometric Mean): 66.5 L
- Vd/F (3 mg, read-out: Vz/F, Mean): 66.9 L
- Vd/F (3 mg, read-out: Vz/F, Median): 65.4 L
- concentration at 6 h [4]: 0.129 µg/mL
- concentration at 6 h [5]: 0.131 µg/mL
- concentration at 6 h [6]: 0.137 µg/mL
- concentration at 12 h [4]: 0.0928 µg/mL
- concentration at 12 h [5]: 0.0942 µg/mL
- concentration at 12 h [6]: 0.0978 µg/mL
- concentration at 24 h [4]: 0.0563 µg/mL
- concentration at 24 h [5]: 0.0578 µg/mL
- concentration at 24 h [6]: 0.0615 µg/mL
- concentration at 48 h [4]: 0.0158 µg/mL
- concentration at 48 h [5]: 0.0164 µg/mL
